Assays:
BRM = BRM (Homo sapiens, UniProt P51531); test: ATPase catalytic activity assay (ADP-Glo), BRM; settings: 30 nM BRM, 400 μM ATP; for IC50: BRM ATPase: IC50 (uM)
BRG-1 = BRG-1 (Homo sapiens, UniProt P51532); test: ATPase catalytic activity assay (ADP-Glo), BRG-1; settings: for Emax: 1 h, read-out: BRG1 Max % Inhibition, ADP-Glo, 30 nM BRG-1, 400 μM ATP
BRG-1, sequence (P51532 whole entry): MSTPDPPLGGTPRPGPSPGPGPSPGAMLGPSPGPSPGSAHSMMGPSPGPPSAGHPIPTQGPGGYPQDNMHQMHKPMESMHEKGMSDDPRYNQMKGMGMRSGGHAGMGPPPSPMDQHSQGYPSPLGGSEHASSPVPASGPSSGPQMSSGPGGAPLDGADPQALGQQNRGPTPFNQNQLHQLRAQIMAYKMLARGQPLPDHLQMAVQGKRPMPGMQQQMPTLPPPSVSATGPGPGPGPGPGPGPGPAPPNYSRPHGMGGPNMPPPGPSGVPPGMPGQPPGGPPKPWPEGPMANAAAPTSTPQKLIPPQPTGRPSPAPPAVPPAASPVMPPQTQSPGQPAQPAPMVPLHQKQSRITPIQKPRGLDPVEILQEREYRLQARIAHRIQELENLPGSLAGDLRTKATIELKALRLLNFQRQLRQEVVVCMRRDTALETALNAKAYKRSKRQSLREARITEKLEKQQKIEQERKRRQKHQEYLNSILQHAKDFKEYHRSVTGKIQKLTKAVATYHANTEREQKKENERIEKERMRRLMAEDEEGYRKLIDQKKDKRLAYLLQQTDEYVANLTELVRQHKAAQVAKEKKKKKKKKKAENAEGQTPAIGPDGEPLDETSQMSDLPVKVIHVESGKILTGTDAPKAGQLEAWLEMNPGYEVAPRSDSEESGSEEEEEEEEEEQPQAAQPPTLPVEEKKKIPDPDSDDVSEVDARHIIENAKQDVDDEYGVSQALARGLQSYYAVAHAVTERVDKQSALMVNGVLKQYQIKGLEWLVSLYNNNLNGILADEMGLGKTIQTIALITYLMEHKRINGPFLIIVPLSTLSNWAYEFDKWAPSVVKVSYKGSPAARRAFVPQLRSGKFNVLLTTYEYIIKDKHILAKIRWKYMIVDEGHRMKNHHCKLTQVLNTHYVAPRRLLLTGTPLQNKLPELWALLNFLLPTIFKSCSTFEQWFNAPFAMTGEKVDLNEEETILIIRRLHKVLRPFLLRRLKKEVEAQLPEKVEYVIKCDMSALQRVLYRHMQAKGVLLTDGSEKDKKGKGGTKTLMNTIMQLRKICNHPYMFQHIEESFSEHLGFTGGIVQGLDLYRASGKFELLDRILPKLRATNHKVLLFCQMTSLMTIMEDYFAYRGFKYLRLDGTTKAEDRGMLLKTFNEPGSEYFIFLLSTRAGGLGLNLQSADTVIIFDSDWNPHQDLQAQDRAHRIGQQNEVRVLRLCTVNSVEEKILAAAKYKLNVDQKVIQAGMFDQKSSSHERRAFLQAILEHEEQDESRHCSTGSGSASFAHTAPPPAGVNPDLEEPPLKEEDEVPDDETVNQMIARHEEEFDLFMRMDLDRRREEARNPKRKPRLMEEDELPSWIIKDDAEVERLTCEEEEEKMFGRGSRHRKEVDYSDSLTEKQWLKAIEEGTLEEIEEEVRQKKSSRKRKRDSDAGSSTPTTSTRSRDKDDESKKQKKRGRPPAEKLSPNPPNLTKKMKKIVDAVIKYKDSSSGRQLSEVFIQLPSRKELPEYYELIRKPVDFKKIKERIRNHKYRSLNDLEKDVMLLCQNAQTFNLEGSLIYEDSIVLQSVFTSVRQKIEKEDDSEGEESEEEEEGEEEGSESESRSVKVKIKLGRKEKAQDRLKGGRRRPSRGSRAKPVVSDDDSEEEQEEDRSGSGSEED
Procedure: The ATPase catalytic activity of BRM or BRG-1 was measured by an in vitro biochemical assay using ADP-Glo™ (Promega, V9102). The ADP-Glo™ kinase assay is performed in two steps once the reaction is complete. The first step is to deplete any unconsumed ATP in the reaction. The second step is to convert the reaction product ADP to ATP, which will be utilized by the luciferase to generate luminesce and be detected by a luminescence reader, such as Envision.
Then following addition of 5 μL of ADP-Glo™ Reagent provided in the kit, the reaction incubates at room temperature for 40 minutes. Then 10 μL of Kinase Detection Reagent provided in the kit is added to convert ADP to ATP, and the reaction incubates at room temperature for 60 minutes. Finally, luminescence measurement is collected with a plate-reading luminometer, such as Envision.

BRM, sequence (P51531 whole entry): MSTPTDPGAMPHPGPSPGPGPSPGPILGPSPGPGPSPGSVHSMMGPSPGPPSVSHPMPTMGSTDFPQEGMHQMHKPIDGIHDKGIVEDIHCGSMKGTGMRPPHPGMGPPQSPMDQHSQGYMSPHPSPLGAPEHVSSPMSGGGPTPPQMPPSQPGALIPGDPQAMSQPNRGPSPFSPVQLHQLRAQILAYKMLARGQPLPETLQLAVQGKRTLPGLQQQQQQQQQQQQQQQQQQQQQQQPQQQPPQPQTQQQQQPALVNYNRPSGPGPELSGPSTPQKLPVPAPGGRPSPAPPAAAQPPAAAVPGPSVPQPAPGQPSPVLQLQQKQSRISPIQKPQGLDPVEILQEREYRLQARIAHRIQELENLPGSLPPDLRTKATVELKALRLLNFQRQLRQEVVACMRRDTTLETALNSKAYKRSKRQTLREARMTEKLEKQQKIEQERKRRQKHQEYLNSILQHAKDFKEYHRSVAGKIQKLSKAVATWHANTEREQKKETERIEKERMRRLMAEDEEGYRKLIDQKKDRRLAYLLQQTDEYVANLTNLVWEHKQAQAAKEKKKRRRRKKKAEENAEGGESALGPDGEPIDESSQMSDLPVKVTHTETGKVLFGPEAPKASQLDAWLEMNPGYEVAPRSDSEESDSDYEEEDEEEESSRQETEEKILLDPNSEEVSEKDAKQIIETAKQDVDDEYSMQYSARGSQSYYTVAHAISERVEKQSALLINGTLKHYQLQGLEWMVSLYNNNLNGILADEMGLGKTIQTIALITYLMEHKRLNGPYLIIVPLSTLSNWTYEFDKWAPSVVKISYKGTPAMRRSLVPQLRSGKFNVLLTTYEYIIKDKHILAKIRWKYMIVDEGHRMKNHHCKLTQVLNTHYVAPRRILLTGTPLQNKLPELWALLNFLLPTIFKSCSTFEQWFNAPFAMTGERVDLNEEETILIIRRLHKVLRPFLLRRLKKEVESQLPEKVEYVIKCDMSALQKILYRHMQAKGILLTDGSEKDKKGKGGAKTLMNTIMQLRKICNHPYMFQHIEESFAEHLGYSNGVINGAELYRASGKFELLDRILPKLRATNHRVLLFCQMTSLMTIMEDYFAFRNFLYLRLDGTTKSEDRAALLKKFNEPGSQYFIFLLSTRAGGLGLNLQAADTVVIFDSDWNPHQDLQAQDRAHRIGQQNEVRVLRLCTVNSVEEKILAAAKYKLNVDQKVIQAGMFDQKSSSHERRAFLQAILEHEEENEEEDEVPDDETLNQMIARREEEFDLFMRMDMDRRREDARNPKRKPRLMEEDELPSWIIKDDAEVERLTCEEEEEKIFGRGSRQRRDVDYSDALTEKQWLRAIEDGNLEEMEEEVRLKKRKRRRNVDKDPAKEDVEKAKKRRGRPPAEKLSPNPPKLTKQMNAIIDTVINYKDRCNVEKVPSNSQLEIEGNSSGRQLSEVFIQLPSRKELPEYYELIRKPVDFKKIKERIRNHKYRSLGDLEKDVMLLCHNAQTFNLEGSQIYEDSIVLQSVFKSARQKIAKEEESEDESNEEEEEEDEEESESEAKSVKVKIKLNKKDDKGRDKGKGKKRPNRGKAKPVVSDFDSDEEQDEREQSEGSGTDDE

Compound | BRM Max % Inhibition (BRM) | IC50 (BRM) | IC50 (BRG-1) | Emax (BRG-1)
C[C@@]1(C#N)CCNc2ccc(C(=O)NCc3cc4nc(-c5ccccc5)sc4cn3)cc21 [Compound 120] | 8% | > 1 µM | > 1000 nM | 0%
O=C(NCc1cc2nc(-c3cncc(C4CC4)n3)ccc2cn1)c1cnc2c(c1)[C@](F)(C(F)F)COC2 [Compound 228] | 100% | < 0.1 µM | 100 to 500 nM | 98%
C[C@@]1(C#N)COCc2ccc(C(=O)NCc3cc(SCc4ccccc4)ccn3)cc21 [Compound 52] | 86% | 0.1 to 0.5 µM | > 1000 nM | 34%
C[C@@]1(F)COCc2ccc(C(=O)NCc3cc4nc(-c5ccc(=O)n(CC(F)F)n5)ccc4cn3)cc21 [Compound 318] | 107% | 0.1 to 0.5 µM | 500 to 1000 nM | 55%
C[C@@]1(C#N)COc2ccc(C(=O)NCc3cc4nc(-c5ccccc5)ccc4cn3)cc21 [Compound 99] | 63% | > 1 µM | > 1000 nM | 22%
C[C@@]1(C#N)COCc2ccc(C(=O)NCc3ncc4ccc(-c5ccccc5)cc4n3)cc21 [Compound 522] | 97% | 0.1 to 0.5 µM | 500 to 1000 nM | 83%
CC(C)(O)c1cccc(-c2ccc3cnc(CNC(=O)c4ccc5c(c4)[C@](C)(C#N)COC5)cc3n2)n1 [Compound 410] | 93% | 0.1 to 0.5 µM | 500 to 1000 nM | 75%
C[C@@]1(C#N)COCc2ccc(C(=O)NCc3cc([C@H]4C[C@@H](c5cccc(C6CC6)n5)C4)ccn3)cc21 [Compound 78] | 96% | < 0.1 µM | 500 to 1000 nM | 79%
C[C@H](O)c1cccc(-c2ccc3cnc(CNC(=O)c4ccc5c(c4)[C@](C)(F)COC5)cc3n2)n1 [Compound 213] | 97% | 0.1 to 0.5 µM | 500 to 1000 nM | 63%
COc1cccc([C@H]2C[C@@H](c3ccnc(CNC(=O)c4ccc5c(c4)[C@](C)(C#N)COC5)c3)C2)c1 [Compound 71] | 89% | 0.1 to 0.5 µM | > 1000 nM | 42%
COc1ccc([C@H]2C[C@H](c3ccnc(CNC(=O)c4ccc5c(c4)[C@](C)(C#N)COC5)c3)C2)cc1 [Compound 72] | 94% | < 0.1 µM | 100 to 500 nM | 91%
Cn1ncc2ccc(-c3ccc4cnc(CNC(=O)c5ccc6c(c5)[C@](C)(C#N)COC6)cc4n3)cc2c1=O [Compound 448] | 97% | < 0.1 µM | 100 to 500 nM | 93%
C[C@@]1(C#N)COCc2ccc(C(=O)NCc3cc(/C(F)=C/c4ccccc4)ccn3)cc21 [Compound 27] | 97% | 0.1 to 0.5 µM | > 1000 nM | 62%
C[C@@]1(F)COCc2c(F)cc(C(=O)NCc3cc4nc(-c5cncc(N6CCC6)n5)ccc4cn3)cc21 [Compound 398] | 98% | < 0.1 µM | 100 to 500 nM | 91%
C[C@@]1(F)COCc2ncc(C(=O)NCc3cc4nc(-c5ccnc(N6CCC6)n5)cnc4cn3)cc21 [Compound 183] | 98% | < 0.1 µM | 100 to 500 nM | 82%
C[C@@]1(C#N)COCc2ncc(C(=O)NCc3cc4nc(-c5cncc(C6CC6)n5)ccc4cn3)cc21 [Compound 221] | 99% | < 0.1 µM | 100 to 500 nM | 88%
C[C@@]1(F)COCc2ncc(C(=O)NCc3cc4nc(-c5ccnc(N6CCC6)n5)sc4cn3)cc21 [Compound 244] | 88% | 0.1 to 0.5 µM | > 1000 nM | 25%
Cn1ccc2c(-c3ccc4cnc(CNC(=O)c5ccc6c(c5)[C@](C)(C#N)COC6)cc4n3)cccc21 [Compound 179] | 99% | < 0.1 µM | 100 to 500 nM | 96%

Further lines, results first:

BRM Max % Inhibition (BRM) | IC50 (BRM) | IC50 (BRG-1) | Emax (BRG-1) | Compound
101% | < 0.1 µM | 100 to 500 nM | 94% | Cn1cc(F)c2c(-c3ccc4cnc(CNC(=O)c5ccc6c(c5)[C@](C)(C#N)COC6)cc4n3)cccc21 [Compound 138]
99% | < 0.1 µM | 100 to 500 nM | 96% | CCn1ccc2c(-c3ccc4cnc(CNC(=O)c5ccc6c(c5)[C@](C)(C#N)COC6)cc4n3)cccc21 [Compound 178]
96% | 0.1 to 0.5 µM | 500 to 1000 nM | 72% | C[C@@]1(C#N)COCc2ccc(C(=O)NCc3cc4nc(-c5cccc(C6(O)COC6)c5)ccc4cn3)cc21 [Compound 479]
84% | 0.1 to 0.5 µM | > 1000 nM | 44% | C[C@@]1(C#N)COCc2ccc(C(=O)NCc3cc4nc(-c5cnn(C(F)F)c5)ccc4cn3)cc21 [Compound 504]
83% | 0.1 to 0.5 µM | > 1000 nM | 25% | CN1CCC(c2cccc(-c3ccc4cnc(CNC(=O)c5ccc6c(c5)[C@](C)(C#N)COC6)cc4n3)n2)CC1 [Compound 131]
96% | 0.1 to 0.5 µM | 500 to 1000 nM | 73% | CNC(=O)c1cc(-c2ccc3cnc(CNC(=O)c4ccc5c(c4)[C@](C)(C#N)COC5)cc3n2)ccn1 [Compound 450]
88% | 0.1 to 0.5 µM | > 1000 nM | 42% | Cc1c(-c2ccc3cnc(CNC(=O)c4ccc5c(c4)[C@](C)(C#N)COC5)cc3n2)cnn1C1COC1 [Compound 187]
91% | 0.1 to 0.5 µM | 500 to 1000 nM | 50% | C[C@@]1(C#N)COCc2ccc(C(=O)NCc3cc4nc(-n5cc(F)cn5)ccc4cn3)cc21 [Compound 411]
83% | 0.1 to 0.5 µM | > 1000 nM | 25% | C[C@@]1(C#N)COCc2ccc(C(=O)NCc3cc4nc(-c5cn(C6COC6)nc5CC(F)F)ccc4cn3)cc21 [Compound 136]
99% | < 0.1 µM | 100 to 500 nM | 96% | C[C@@]1(C#N)COCc2ncc(C(=O)NCc3cc4nc(-c5cccc(N6CCC6)n5)ccc4cn3)cc21 [Compound 210]
98% | < 0.1 µM | 100 to 500 nM | 88% | C[C@@]1(C#N)COCc2ccc(C(=O)NCc3cc4cc(-n5cc(F)c(N6CCC6)n5)ccc4nn3)cc21 [Compound 142]
89% | 0.1 to 0.5 µM | > 1000 nM | 59% | COc1nn(C2CCOC2)cc1-c1ccc2cnc(CNC(=O)c3ccc4c(c3)[C@](C)(C#N)COC4)cc2n1 (stereo partly shown) [Compound 197]
93% | 0.1 to 0.5 µM | 500 to 1000 nM | 82% | CN1Cc2ccc(-c3ccc4cnc(CNC(=O)c5ccc6c(c5)[C@](C)(C#N)COC6)cc4n3)cc2C1=O [Compound 485]
99% | < 0.1 µM | 100 to 500 nM | 93% | C[C@@]1(C#N)COCc2ccc(C(=O)NCc3cc4nc(-c5cc(F)cc(N6CCC6)c5)ccc4cn3)cc21 [Compound 95]
100% | < 0.1 µM | 100 to 500 nM | 86% | COc1nn(C)cc1-c1ccc2nnc(CNC(=O)c3ccc4c(c3)[C@](C)(C#N)COC4)cc2c1 [Compound 329]
97% | < 0.1 µM | 100 to 500 nM | 90% | C[C@@]1(C#N)COCc2ccc(C(=O)NCc3ncc4ccc(-c5cncc(C6CC6)n5)nc4c3F)cc21 [Compound 130]
85% | 0.1 to 0.5 µM | 500 to 1000 nM | 55% | C[C@@]1(C#N)COCc2ccc(C(=O)NCc3cc4nc(-c5cnn6c5OCCC6)ccc4cn3)cc21 [Compound 405]
101% | < 0.1 µM | 100 to 500 nM | 90% | C[C@@]1(C#N)COCc2ccc(C(=O)NCc3cc4nc(-c5cccc6c5ccn6CC(F)F)ccc4cn3)cc21 [Compound 147]
98% | < 0.1 µM | 500 to 1000 nM | 89% | C[C@@]1(C#N)COCc2ccc(C(=O)NCc3cc4cc(-c5ccnc(N6CCC6)n5)cnc4cn3)cc21 [Compound 377]
99% | < 0.1 µM | < 100 nM | 96% | CN(C)c1nccc(-c2ccc3cnc(CNC(=O)c4ccc5c(c4)[C@](C)(C#N)COC5)cc3n2)n1 [Compound 424]
98% | 0.1 to 0.5 µM | 500 to 1000 nM | 79% | C[C@H]1COCCN1c1nccc(-c2ccc3cnc(CNC(=O)c4ccc5c(c4)[C@](C)(C#N)COC5)cc3n2)n1 [Compound 376]
93% | 0.1 to 0.5 µM | 100 to 500 nM | 78% | C[C@@]1(C#N)COCc2ccc(C(=O)NCc3cc4nc(-c5cncc(N6CC(F)(F)C6)n5)ccc4cn3)cc21 [Compound 404]
95% | 0.1 to 0.5 µM | 500 to 1000 nM | 63% | C[C@@]1(C#N)COCc2ccc(C(=O)NCc3cc4nc(-c5ccc(C(F)F)nc5)ccc4cn3)cc21 [Compound 478]
96% | 0.1 to 0.5 µM | 500 to 1000 nM | 49% | C[C@@]1(C#N)COCc2ccc(C(=O)NCc3cc4c(nn3)CCN(c3cccc(N5CCC5)n3)C4)cc21 [Compound 234]
106% | < 0.1 µM | < 100 nM | 97% | C[C@H]1CN(c2nccc(-c3ccc4cnc(CNC(=O)c5ccc6c(c5)[C@](C)(C#N)COC6)cc4n3)n2)CCO1 [Compound 322]

Source: patent US12441726B2, “Compounds and uses thereof” (Foghorn Therapeutics Inc., priority 2020, dated 2025)
